Data reported in US20040244713A1, “Method for treating animals or masses of water with compositions comprising quinone compounds” (priority 2003, published 2004).
Read-outs that look alike come from different tables or passages of the source. Marks after values point to notes of the source that are not given here.

Columns and labels:
[1] = system: Haemoncus contortus larvae (L1); assay: Motility of Haemoncus contortus larvae (L1); assay type: in vivo
Method: (§1) The effect of menadione nicotinamide bisulfite on Haemoncus contortus is assessed by measuring the motility of the larvae (L1), Table 2, and the faecal count of the larvae (L3), Table 2.1, according to the methodology described in Fetterer R. et Al. (1989) Vet. Parasitol. 32:181-189.

[2] = system: Haemoncus contortus larvae (L3); assay: Faecal count of Haemoncus contortus larvae (L3); assay type: in vivo
Method: as §1

Isochris Galbana = assay: Toxicity test LC50 on Isochris Galbana; assay type: cell-based
Source text: (§16) The table below lists the results of the toxicity tests performed on fish fauna and on some phyto- and zooplankton species considered among the possible targets of the claimed method.

Artemia Salina = assay: Toxicity test LC50 on Artemia Salina; settings: in vivo
Source text: as §16

Rainbow trout = assay: Toxicity test LC50 on fish fauna, Rainbow trout; assay type: in vivo
Source text: as §16

[3] = Hydrolysis test performed in darkness; assay type: physicochemical
[4] = Photodegradability in sunlight and UV light; assay type: physicochemical; settings: 10-ppm solution in drinking water (pH 6.5-7.5)
Method: In a fully similar manner, the same behaviour is confirmed if one assesses the photodegradability in sunlight and UV light (the radiation test was performed on a 10-ppm solution in drinking water (pH 6.5-7.5)

[5] = Biodegradability OECD 301 A (92/69/EEC C4-A); assay type: physicochemical
Source text: The degradability of a substance is normally a factor that is impossible to predict on a structural basis. […] On the basis of the available data related to the compounds that are chemically more similar to the derivatives of menadione described here, one could have expected a degradability comprised between the 0% (percentage calculated on the initial mass of product expressed as mg/l) of menadione (2-methyl-1,4-naphthalenedione) and the 17% (assessed after 28 days) of menadione sodium bisulfite (where the calculation was performed by using the OECD301 A guidelines annexed to EEC directive 92/69/EEC C4-A).
Finally, biodegradability according to the 92/69/EEC C4-A regulation was also assessed.

[6] = Method: As noted repeatedly, the water solubility of the biocidal candidate is an essential requirement for advantageous use in biological water control. Accordingly, this property was evaluated for four of the compounds that are representative of the chemical classes to which the biocides currently in use belong.
[7] = system: Pseudomonas elongata NCIMB 1141; assay: Agar diffusion test (Kirby-Bauer); assay type: cell-based; settings: MNB (100 μg) per disk, 24 hours in darkness
Method: (§2) a) Kirby-Bauer test performed after 24 hours in darkness.
(§3) In this test, paper disks impregnated with known quantities of MNB are placed on the surface of agar disks injected at confluence with a standard suspension of a bacterial strain. The antibacterial agent diffuses on the plate, causing the formation of an area of inhibition of the growth of the bacterial strain around the disk with the inhibiting quantity of the agent. By virtue of a calibration curve it was possible to classify the isolates into susceptible, moderately resistant, and resistant.
(§4) The method being considered, therefore, assesses the effectiveness of a single quantity of agent ([…]) against two control strains of Gram-positive and Gram-negative aerobic bacteria (Gram-negative: Pseudomonas elongata NCIMB 1141; Gram-positive: Staphylococcus aureus ATCC 25923).
(§5) The results are given in the table and represent the size of the inhibition halos in millimetres after contact with 100 μg of MNB.

[8] = system: Staphylococcus aureus ATCC 25923; assay: Agar diffusion test (Kirby-Bauer); assay type: cell-based; settings: MNB (100 μg) per disk, 24 hours in darkness
Method: as §2, §3, §4, §5

Aeromonas sp. CH34 = assay: MIC and MBC determination; assay type: cell-based; settings: 24 hours in darkness, tested range 0.12-64 mg/l
Method: (§6) Tested concentration range: 0.12-64 mg/l.

[9] = system: Bacillus licheniformis NCIMB 1525; assay: MIC and MBC determination; assay type: cell-based; settings: 24 hours in darkness, tested range 0.12-64 mg/l
Method: as §6

Bacillus subtilis = assay: MIC and MBC determination; assay type: cell-based; settings: Bacillus subtilis ATCC 25923; 24 hours in darkness; tested range 0.12-64 mg/l
Method: as §6

Corynebacterium sp. CT15 = assay: MIC and MBC determination; assay type: cell-based; settings: 24 hours in darkness, tested range 0.12-64 mg/l
Method: as §6

[10] = system: Escherichia coli ATCC 25922; assay: MIC and MBC determination; assay type: cell-based; settings: 24 hours in darkness, tested range 0.12-64 mg/l
Method: as §6

Micrococcus sp. AD10 = assay: MIC and MBC determination; assay type: cell-based; settings: 24 hours in darkness, tested range 0.12-64 mg/l
Method: as §6

Micrococcus sp. AE11 = assay: MIC and MBC determination; assay type: cell-based; settings: 24 hours in darkness, tested range 0.12-64 mg/l
Method: as §6

[11] = system: Pseudomonas aeruginosa ATCC 10145; assay: MIC and MBC determination; assay type: cell-based; settings: 24 hours in darkness, tested range 0.12-64 mg/l
Method: as §6

[12] = system: Pseudomonas elongata NCIMB 1141; assay: MIC and MBC determination; assay type: cell-based; settings: 24 hours in darkness, tested range 0.12-64 mg/l
Method: as §6

[13] = system: Pseudomonas putida NCIMB 1960; assay: MIC and MBC determination; assay type: cell-based; settings: 24 hours in darkness, tested range 0.12-64 mg/l
Method: as §6

[14] = system: Staphylococcus aureus ATCC 25923; assay: MIC and MBC determination; assay type: cell-based; settings: 24 hours in darkness, tested range 0.12-64 mg/l
Method: as §6

[15] = system: Vibrio parahaemolyticus AD19; assay: MIC and MBC determination; assay type: cell-based; settings: 24 hours in darkness, tested range 0.12-64 mg/l
Method: as §6

Vibrio sp. AD18 = settings: 24 hours in darkness, tested range 0.12-64 mg/l
Method: (§7) The MNB compound was tested in particular for its antibacterial activity on pathogenic and non-pathogenic organisms. The biocidal activity of MNB was estimated by using two separate methods: the agar diffusion test (Kirby-Bauer method) and the determination of the Minimum Inhibiting Concentration (MIC) and the Minimum Bactericidal Concentration (MBC).
(§8) b) Test for determining the MIC (minimum inhibiting concentration) and the MBC (minimum bactericidal concentration) of MNB with respect to pathogenic organisms after the colonies were kept in darkness for 24 hours. Tested concentration range: 0.12-64 mg/l. The tested strains were environmental isolates identified by means of an internal number or were standard strains identified by means of the ATCC or MNCIB filing number.

Vibrio sp. AE7 = settings: 24 hours in darkness, tested range 0.12-64 mg/l
Method: as §7, §8

Vibrio sp. CH45 = settings: 24 hours in darkness, tested range 0.12-64 mg/l
Method: as §7, §8

Eurytemora Affinis = assay: Toxicity test LC50 on Eurytemora Affinis; settings: in vivo
Source text: as §16

[16] = system: Dreissena Polimorfa Larvae; assay: Toxicity test LC50 on Dreissena Polimorfa larvae; settings: in vivo
Source text: as §16

Eimeria acervulina = assay: Coccid infection in chicken, Eimeria acervulina; assay type: in vivo; settings: chickens (Ross males), 250 ppm of MPB in feed, inoculated orally with 100,000 oocysts; fecal count 16 hours before killing; n=6
Method: (§9) The effect of a preparation comprising menadione dimethylpirymidinol bisulfite (MPB) on coccid infection in chicken was assessed.
(§10) Composition of the preparation (per Kg of final preparation):
(§11) MPB coated with vegetable hydrogenated fatty acids (1:1 inclusion ratio) 500 g,
(§12) This preparation was added in the amount of 1 Kg per ton of feed, so that the final concentration of MPB was equal to 250 ppm of MPB (equivalent to approximately 109 ppm of menadione). Since a chicken eats on average 70-80 grams of feed per day, the daily dose of MPB was equal to approximately 17-20 mg/animal per day.
(§13) The chickens (Ross males) were raised in individual cages for four weeks with a commercial feed in comparison with the same feed integrated with said preparation at the dose of 1 Kg/ton.
(§14) At the end of the third week, the chickens were weighed and divided into uniform weight groups within each treatment and were orally inoculated (1 ml) respectively with 50,000 oocysts of Eimeria tenella or 100,000 oocysts of E. acervulina. The fecal count of the oocysts was performed (method described in Hodgson J. N. 1970, Exp. Parasitol. 28:99-102) 16 hours before killing the animals.
(§15) The coccidiostatic effect is confirmed by the score of the lesions six days after inoculation (method described by Johson J. et Al. 1970, Exp. Parasitol. 28:30-36).

Eimeria tenella = assay: Coccid infection in chicken, Eimeria tenella; assay type: in vivo; settings: chickens (Ross males), 250 ppm of MPB in feed, inoculated orally with 50,000 oocysts; fecal count 16 hours before killing; n=6
Method: as §9, §10, §11, §12, §13, §14, §15

## CC1(S(=O)(=O)O)CC(=O)c2ccccc2C1=O.NC(=O)c1cccnc1 (stereo not shown) [MNB, menadione nicotinamide bisulfite]
[1]; 1 μg of MNB/ml
  % of motile larvae (L1): 70%
[1]; 10 μg of MNB/ml
  % of motile larvae (L1): 43%
[1]; 100 μg of MNB/ml
  % of motile larvae (L1): 3%
[2]; 1 μg of MNB/ml
  Total no. of larvae (L3): 650
[2]; 10 μg of MNB/ml
  Total no. of larvae (L3): 310
[2]; 100 μg of MNB/ml
  Total no. of larvae (L3): 35
Isochris Galbana
  LC50 Isochris Galbana: 0.5 ppm
Artemia Salina
  LC50 Artemia Salina: 5 ppm
Rainbow trout
  LC50 Rainbow trout (assessed on 96 h): 0.4 ppm
[3]; PH 6.8, in darkness
  ½ LIFE, hydrolysis: 48 h
[3]; PH 9, in darkness
  ½ LIFE, hydrolysis: <3 h
[4]
  Light exp. Total Degr.: 48 h
  Light exp. ½ life: 10 h
[5]
  degradability compared with that of MSB: as much as eight times higher
[5]; after 7 days
  % biodegr. OECD 301 A: 37%
[5]; after 14 days
  % biodegr. OECD 301 A: 37%
[5]; after 28 days
  % biodegr. OECD 301 A: 40%
[6]
  Sol. in H2O: 19 gr/l
[7]
  size of the inhibition halos: 20 mm
[8]
  size of the inhibition halos: 20 mm
Aeromonas sp. CH34
  MBC: 64 µg/mL
  MIC: 32 µg/mL
[9]
  MBC: 32 µg/mL
  MIC: 16 µg/mL
Bacillus subtilis
  MBC: 32 µg/mL
  MIC: 12 µg/mL
Corynebacterium sp. CT15
  MBC: 16 µg/mL
  MIC: 8 µg/mL
[10]
  MBC: >64 µg/mL
  MIC: >64 µg/mL
Micrococcus sp. AD10
  MBC: 32 µg/mL
  MIC: 16 µg/mL
Micrococcus sp. AE11
  MBC: 16 µg/mL
  MIC: 8 µg/mL
[11]
  MBC: >64 µg/mL
  MIC: >64 µg/mL
[12]
  MBC: 16 µg/mL
  MIC: 8 µg/mL
[13]
  MBC: >64 µg/mL
  MIC: >64 µg/mL
[14]
  MBC: 16 µg/mL
  MIC: 8 µg/mL
[15]
  MBC: 4 µg/mL
  MIC: 1 µg/mL
Vibrio sp. AD18
  MBC: 32 µg/mL
  MIC: 16 µg/mL
Vibrio sp. AE7
  MBC: 32 to 64 µg/mL
  MIC: 16 to 32 µg/mL
Vibrio sp. CH45
  MBC: 16 µg/mL
  MIC: 16 µg/mL
Eurytemora Affinis
  LC50 Eurytemora Affinis: 5 ppm
[16]
  LC50 Dreissena Polimorfa Larvae: 1 ppm

## CC1(S(=O)(=O)O)CC(=O)c2ccccc2C1=O.Cc1cc(C)[nH]c(=O)n1 (stereo not shown) [MPB, menadione dimethylpirymidinol bisulfite]
Isochris Galbana
  LC50 Isochris Galbana: 0.5 ppm
Artemia Salina
  LC50 Artemia Salina: 5 ppm
Rainbow trout
  LC50 Rainbow trout (assessed on 96 h): 0.4 ppm
[3]; PH 6.8, in darkness
  ½ LIFE, hydrolysis: 48 h
[3]; PH 9, in darkness
  ½ LIFE, hydrolysis: <3 h
[4]
  Light exp. Total Degr.: 48 h
  Light exp. ½ life: 10 h
[5]; 7 days after the beginning of the test
  degradability compared with that of MSB: as much as eight times higher
[5]; after 7 days
  % biodegr. OECD 301 A: 37%
[5]; after 14 days
  % biodegr. OECD 301 A: 37%
[5]; after 28 days
  % biodegr. OECD 301 A: 40%
Eimeria acervulina
  Excretion of oocysts, Eimeria acervulina: 5.9 ± 0.8^a ×10^8
Eimeria tenella
  Excretion of oocysts, Eimeria tenella: 0.44 ± 0.05^a ×10^8
Eurytemora Affinis
  LC50 Eurytemora Affinis: 5 ppm
[16]
  LC50 Dreissena Polimorfa Larvae: 1 ppm
